Among the data in PubChem BioAssay AID489023 (Sanford-Burnham Center for Chemical Genomics, 2010) are IC50 values, retold here.

One may read the IC50 as the point on the concentration scale where inhibition reaches its midpoint.

Activity calls are given as the source filed them. No rule for the calls is given here.

The test system of the assay is 697B cells, BCR-induced NF-kB luciferase reporter luminescence. In words: B-cell receptor NF-kB reporter inhibition – 697B cells, luciferase luminescence, dose response (AID 489023).

Take `CCc1ccc(/C=C2/SC(=S)N(CCC(=O)Nc3ccc(C(=O)O)cc3)C2=O)cc1`: the IC50 is 4.07 µM. For `COc1ccc(/C=C2\SC(=S)N(CCCC(=O)Nc3ccc(O)cc3)C2=O)cc1`, the IC50 was 1.27 µM. Regarding `COc1ccc(-c2ccc(OC)c([C@H]3[C@H]4C=CC[C@@H](C)[C@@H]4C(=O)N3Cc3ccccc3)c2)cc1`, the IC50 was > 80 µM (inactive). With `Cc1ccc(/C=C2\SC(=S)N(CCCC(=O)Nc3ccc(O)cc3)C2=O)cc1`, the IC50 is 0.27 µM. As to `Cn1c(=O)n(C)c2cc(NS(=O)(=O)c3ccccc3)ccc21`, the IC50 was 38.3 µM (inactive). As for `Oc1cc(O)cc(-c2cc3ccc(O)cc3o2)c1`, the IC50 was > 80 µM (inactive). As for `Cc1[nH]c2ccccc2c1/C=N/Nc1nc(Nc2ccccc2)nc(N2CCOCC2)n1`, the IC50 is 3.35 µM. As to `CCn1c(=O)cc(OCC(=O)N(C)C2CCCCC2)c2ccccc21`, the IC50 was > 80 µM (inactive). `Cc1c(NC(=O)/C=C/c2cn(-c3ccccc3)nc2-c2ccccc2)c(=O)n(-c2ccccc2)n1C`: the IC50 was > 80 µM (inactive). `O=c1c(C=NCCCO)c(-c2ccccc2)[nH]n1-c1nc2ccccc2s1`: the half-maximal inhibitory concentration (IC50) is 9.07 µM. Take `Cc1ccc(C(=O)N2CCCC(c3ccc(Cl)cc3)=N2)cc1`: the IC50 is > 80 µM (inactive). Regarding `O=C(O)CCSc1ncnc2sc(-c3ccccc3)cc12`, the half-maximal inhibitory concentration (IC50) was 2.29 µM. As for `O=C(CCCN1C(=O)/C(=C/c2ccccc2Cl)SC1=S)NNC(=O)c1ccc(Cl)cc1`, the IC50 was 30.7 µM (inactive).

For the molecule `Cc1cc(OC(=O)c2ccccc2Cl)cc(=O)n1C`, the IC50 was > 80 µM (inactive). `O=C(CN1C(=O)c2ccccc2S1(=O)=O)c1ccccc1Cl`: the IC50 is 1.13 µM.

With `CN1C(=O)CSc2ccc(NC(=O)N3CCN(c4ccccc4)CC3)cc21`, the IC50 is 74 µM (inactive).

Turning to `COc1ccccc1/C=C1\SC(=S)N(CCC(=O)NC2=NCCS2)C1=O`, the IC50 is > 80 µM (inactive). The same measure for `COc1ccc(-n2ncc3c(N4CCC(C(N)=O)CC4)ncnc32)cc1`: > 80 µM (inactive). `CCOc1ccc(-c2c[n+]3c(n2-c2ccccc2)CCCCC3)cc1`: the IC50 was > 80 µM (inactive). The same measure for `O=C(CCCN1C(=O)/C(=C/c2ccccc2Cl)SC1=S)NNC(=O)c1ccc(Cl)cc1Cl`: 3.1 µM; for `O=C(NNC(=O)c1ccccc1O)c1ccc(Cl)c(S(=O)(=O)N2CCc3ccccc32)c1`: > 80 µM (inactive). Under `CN(C)c1cc[n+](Cc2c(Cl)cccc2Cl)cc1` stands > 80 µM (inactive); under `COc1cc(NC(=O)c2cc3c(C)nc4ccccc4c3o2)cc(OC)c1OC`, 14.1 µM. On to `CN1C(=O)CC(c2ccco2)Sc2ccccc21` (centres undefined), for which the IC50 is > 80 µM (inactive). For `CCOc1ccc(-c2cc(CCCC(=O)NCc3ccco3)no2)cc1`, the concentration for half-maximal inhibition (IC50) was 6.57 µM.

Consider `Cc1ccc(/C=C2\SC(=S)N(CCCC(=O)NC3CCCC3)C2=O)cc1`, for which the concentration for half-maximal inhibition (IC50) is 1.13 µM.

In the case of `CC(C)(C)c1ccc(-c2noc(CCC(=O)N3CCOCC3)n2)cc1`, the IC50 is 51.6 µM (inactive). For the molecule `N=c1ccn2c(n1)OC1C(O)C(CO)OC12` (centres undefined), the IC50 was under 0.16 µM. Consider `COc1cc(NC(=O)c2ccco2)c(OC)cc1NC(=O)c1cc(OC)c(OC)c(OC)c1`, for which the IC50 is 24.9 µM (inactive). Regarding `O=S(=O)(c1cnc(Cl)c(Cl)c1)N1CCCc2ccccc21`, the IC50 was 33.8 µM (inactive). For `COc1ccc(/C=C2\SC(=S)N(CCC(=O)Nc3cccc(O)c3)C2=O)cc1`, the IC50 was > 80 µM (inactive).

For `O=C(CCl)N1CCN(S(=O)(=O)c2ccc3c(c2)CCC3)CC1`, the IC50 was 5.72 µM. Consider `O=C(Nc1cccc(S(=O)(=O)Nc2ccc(Cl)cc2)c1)c1ccc(Cl)nc1`, for which the IC50 is 41.6 µM (inactive). The same measure for `Cc1nc(Nc2c(Cl)cccc2Cl)sc1C(=O)Nc1ccccc1`: 50.1 µM (inactive). `CCN(C(=O)CN1C(=O)NC(c2ccccc2)(c2ccc(C)c(C)c2)C1=O)C1CCCCC1` (centres undefined): the IC50 is 48.4 µM (inactive).

Take `COc1cccc(/C=C2\SC(=S)N(CCCC(=O)NC3=NCCS3)C2=O)c1`: the IC50 is 56.3 µM (inactive). As for `Cc1cc(=O)[nH]c2c(C)cc(S(=O)(=O)N3CCCCC3)cc12`, the IC50 is > 80 µM (inactive).

Take `CC1CCc2c(sc3nc(C(C)(C)C)nc(N4CCN(C(=O)CCl)CC4)c23)C1` (centres undefined): the IC50 was 0.68 µM. With `Cc1ccc(-c2nn3c(C)nnc3c3ccccc23)cc1S(=O)(=O)NCc1ccco1`, the IC50 is 29.3 µM (inactive). On to `COc1ccc(NC(=O)CN(C)C(=O)C2(c3ccccc3)CCCC2)cc1`, for which the IC50 is 3.56 µM. Regarding `CCOC(=O)N1CCN(CC(=O)Nc2ccc([N+](=O)[O-])cc2C(=O)Nc2ccccc2F)CC1`, the IC50 was 29.1 µM (inactive). Consider `COc1cc(/C(C)=N\NC(N)=S)cc(OC)c1OC`, for which the IC50 is 70.7 µM (inactive). Turning to `O=c1cccc2c1c1cc[nH]c3ccc(=O)n2c31`, the IC50 was 2.1 µM. Turning to `CCOc1ccc(-c2nnc(SCC(=O)Nc3cc(C)on3)o2)cc1`, the IC50 is 12 µM. Consider `O=C(CN1C(=O)c2ccccc2S1(=O)=O)N1CCc2ccccc21`, for which the 50% inhibitory concentration (IC50) is 1.24 µM. Consider `CCOc1ccc(/C=C2\SC(=S)N(CCCC(=O)NCCCN3CCOCC3)C2=O)cc1`, for which the IC50 was 0.43 µM. Take `COc1ccc(C(=O)n2nc(-c3ccc(Cl)cc3)nc2N)cc1OC`: the IC50 was 1.29 µM. `Cc1cc(C)cc(NC(=O)Nc2ccc(NC(=O)c3ccccc3O)cc2)c1`: the IC50 is > 80 µM (inactive).

On to `N=c1ccn(Cc2ccccc2Cl)cc1`, for which the IC50 was > 80 µM (inactive). `CCCOc1ccc(NC(=O)C(=O)NCCCn2ccnc2)cc1`: the concentration for half-maximal inhibition (IC50) is 14.2 µM. For `CCc1ccc(-c2nnn(CCC(=O)OC)n2)cc1`, the IC50 is 5.46 µM. For the molecule `COc1ccc(S(=O)(=O)Nc2cc3c(C(C)=O)c(C)oc3c3ccccc23)cc1`, the IC50 was > 80 µM (inactive). Under `N#CC1=C(N)Oc2cc(Nc3ccccc3)ccc2C1c1ccncc1` (centres undefined) stands 8.6 µM; under `Cc1ccccc1-c1cc(C(=O)Nc2sc(C(=O)OC(C)C)c(C)c2C#N)c2ccccc2n1`, 42.8 µM (inactive); under `N=c1c(C(=O)NC2CCCC2)cc2c(=O)n3ccccc3nc2n1CCN1CCOCC1`, > 80 µM (inactive).

On to `O=[N+]([O-])c1ccc(Sc2cc[n+]([O-])c3ccccc23)c([N+](=O)[O-])c1`, for which the IC50 was 0.59 µM. As to `Cn1c(=NC(=O)CCl)sc2ccccc21`, the concentration for half-maximal inhibition (IC50) is 0.59 µM. `Cc1ccc(-c2nn3c(C)nnc3c3ccccc23)cc1S(=O)(=O)N1CCN(CCO)CC1`: the IC50 is 26.5 µM (inactive). In the case of `COC(=O)c1c(NC(=O)c2cccc([N+](=O)[O-])c2)sc(C(N)=O)c1C`, the IC50 was 45.6 µM (inactive). Take `CC(C)[C@H](N)c1nnc(SCC(=O)c2ccc(Cl)cc2)o1`: the IC50 is > 80 µM (inactive). For `Cn1c(=O)cc(SCC(=O)N2CCCC2)c2cc(Cl)ccc21`, the IC50 is > 80 µM (inactive). On to `O=C(Nc1ccc(NC(=O)c2cc3ccccc3o2)cc1)c1ccc2c(c1)OCCO2`, for which the IC50 is 0.3 µM.

Regarding `COC(=O)C1=C(c2ccc(-c3ccccc3)c(F)c2)C[C@@H]2CC[C@H]1N2C(=O)N1CCCC1`, the IC50 is 73.9 µM (inactive). As to `O=C(O)COc1ccc(-c2nccc(-c3ccccn3)n2)cc1`, the IC50 is 21.7 µM (inactive). The same measure for `O=C(CCCN1C(=O)/C(=C/c2ccccc2Cl)SC1=S)NNC(=O)c1ccccc1Cl`: 4.23 µM; for `CC(C)Oc1ccc(C(=O)Nc2ccc(N(C)C)cc2)cc1`: 61.3 µM (inactive); for `Cc1ccccc1-n1c(SCc2c(C)noc2C)nnc1-c1c[nH]c2ccccc12`: 76.1 µM (inactive). With `CNC(=O)c1cccn(Cc2ccc(C(F)(F)F)cc2)c1=O`, the IC50 was 47.9 µM (inactive).

Consider `CC(C)CCNC(=O)CCCOc1cc(=O)n(C)c2ccccc12`, for which the IC50 is 64.3 µM (inactive). The same measure for `COc1ccc(CC(=O)Nc2cccc(-c3ccc4nnc(C)n4n3)c2)cc1`: 71.7 µM (inactive); for `CCC(=O)N(C1=C(NC)C(=O)c2ccccc2C1=O)C(C)C`: > 80 µM (inactive); for `CCOC(=O)CNC(=O)CSc1nnc(NC(=O)c2ccc(C)cc2)s1`: 6.84 µM. Turning to `COc1ccccc1/C=C1\SC(=S)N(CCC(=O)Nc2cc(C)on2)C1=O`, the IC50 is 36.8 µM (inactive).

`CCC(C)N1C(=O)/C(=C/c2c(NCCCOC(C)C)nc3c(C)cccn3c2=O)SC1=S` (centres undefined): the IC50 was > 80 µM (inactive). With `Cc1csc(NC(=O)/C=C/c2ccc3c(c2)OCO3)n1`, the IC50 was 6.13 µM. As for `CCC(C)[C@H](N)c1nnc(SCC(=O)c2ccc(Cl)cc2)o1` (some centres undefined), the IC50 was > 80 µM (inactive).

With `CN1C(=O)c2cccc3c(S(=O)(=O)Nc4ccccc4F)ccc1c23`, the IC50 is 57.4 µM (inactive). For `CC(C)(C)c1ccc(-c2nnc(SCC(=O)NC3CC3)o2)cc1`, the IC50 was > 80 µM (inactive).

With `CC1CCC/C=C/C2CC(O)CC2C(O)/C=C/C(=O)O1` (centres undefined), the IC50 is > 80 µM (inactive). For `COc1ccc(-c2ccc(C(C)=O)cc2)cc1[C@H]1[C@H]2C=CC[C@@H](C)[C@@H]2C(=O)N1Cc1ccccc1`, the IC50 is > 80 µM (inactive). As to `O=C(Oc1cccc(/C=N/Nc2nc(Nc3ccccc3)nc(N3CCOCC3)n2)c1)c1ccco1`, the IC50 was 2.99 µM. As for `OCCN1CCN(C(=S)c2ccc(-c3ccccc3)cc2)CC1`, the IC50 was 5.72 µM.

Consider `Cc1ccc(O)c(NC(=O)COc2cc(C)ccc2C)c1`, for which the IC50 is > 80 µM (inactive).

On to `CCOC(=O)C1CCN(c2ncnc3c2cnn3-c2ccc(Cl)cc2)CC1`, for which the concentration for half-maximal inhibition (IC50) was 0.82 µM. On to `O=S(=O)(NCc1ccncc1)c1ccc(Br)s1`, for which the IC50 is > 80 µM (inactive). In the case of `CCN(CC)S(=O)(=O)c1ccc(N2CCOCC2)c(NC(=O)c2[nH]c(C)c(C(C)=O)c2C)c1`, the IC50 was 27.3 µM (inactive).

Take `CCc1ccc(/C=C2\SC(=S)N(CCCC(=O)Nc3ccccn3)C2=O)cc1`: the IC50 was 0.55 µM. The same measure for `CCOc1ccc(S(=O)(=O)NCc2ccncc2)cc1NC(=O)c1ccccc1`: > 80 µM (inactive). The same measure for `CCCCOc1ccc(NC(=O)C(=O)NCCCn2ccnc2)cc1`: 10.9 µM.
